{"source": "patent US4591573A", "about": "(priority 1983, dated 1986)", "key": {"[1]": {"test_system": "antibody to L-hyoscyamine (antiserum)", "type": "binding, New Zealand white rabbit"}, "[2]": {"test_system": "spinal cord", "details": "dog, in vivo; cited from earlier work"}, "[3]": {"test_system": "antibody of Wurzeburger radioimmunoassay", "details": "cited from earlier work"}, "[4]": {"test_system": "patients", "details": "human, in vivo; cited from earlier work"}, "[5]": {"test_system": "antibody of Virtanen radioimmunoassay", "details": "cited from earlier work"}, "[6]": {"test_system": "mice", "details": "mouse, in vivo; cited from earlier work"}, "[7]": {"details": "in vivo; cited from earlier work"}, "[8]": {"test_system": "peripheral parasympathetic nervous system", "details": "in vivo; cited from earlier work"}, "[9]": {"details": "in vivo; cited from earlier work", "remark": "listed apart in the source"}, "[10]": {"test_system": "children (flush)", "details": "in vivo, po; cited from earlier work"}, "[11]": {"test_system": "frogs", "details": "in vivo; cited from earlier work"}, "[12]": {"test_system": "human eyes", "details": "in vivo; cited from earlier work"}}, "note": "Counter-ions that a name gives are not always drawn."}
{"smiles": "CN1[C@@H]2CC[C@H]1C[C@@H](OC(=O)C(O)c1ccccc1)C2", "note": "(mixture of isomers) [Homatropine, dl-homatropine-HBr]", "values": [{"measurement": "recognition by / cross-reaction with the antibody", "setting": "[1]", "value": "recognized by the antibody"}]}
{"smiles": "O=C(O)C(CO)c1ccccc1", "note": "(racemic) [Tropic Acid, dl-tropic acid]", "values": [{"measurement": "% Cross-reactivity", "setting": "[1]", "value": 0, "unit": "%"}, {"measurement": "recognition by / cross-reaction with the antibody", "setting": "[1]", "value": "did not cross-react with the antibody"}]}
{"smiles": "CN1[C@@H]2CC[C@H]1C[C@@H](OC(=O)C(CO)c1ccccc1)C2", "note": "(mixture of isomers) [atropine, D,L-hyoscyamine]", "values": [{"measurement": "effect on excitability of the spinal cord", "setting": "[2]", "value": "increase the excitability of the spinal cord"}, {"measurement": "% Cross-reactivity", "setting": "[1]", "value": 30, "unit": "%"}, {"measurement": "Specificity (cross-reactivity), Verma", "setting": "[1]", "value": 37, "unit": "%"}, {"measurement": "cross reaction / cross-reactivity with antibody of the invention", "setting": "[1]", "value": "about 37%"}, {"measurement": "recognition by / cross-reaction with the antibody", "setting": "[1]", "value": "recognized by the antibody"}, {"measurement": "Specificity (percentage of cross reactivity), Wurzeburger", "setting": "[3]", "value": 100, "unit": "%"}, {"measurement": "complications", "setting": "[4]", "value": "tachycardia, lethal arrhythmias and/or extension of the myocardial infarction"}, {"measurement": "Specificity (cross-reactivity), Virtanen", "setting": "[5]", "value": 100, "unit": "%"}, {"measurement": "narcotization", "setting": "[6]", "value": "became narcotized"}, {"measurement": "cycloplegic effect", "setting": "[7]", "value": "exert a cycloplegic effect"}, {"measurement": "effect on thermoregulation", "setting": "[7]", "value": "hinders thermoregulation"}]}
{"smiles": "CN1[C@@H]2CC[C@H]1C[C@@H](OC(=O)[C@@H](CO)c1ccccc1)C2", "note": "[D-hyoscyamine]", "values": [{"measurement": "peripheral activity", "setting": "[8]", "value": "peripherally inactive"}, {"measurement": "rate of destruction compared with L-form", "setting": "[9]", "value": "destroyed more slowly than the L-form"}, {"measurement": "cross reaction / cross-reactivity with antibody of the invention", "setting": "[1]", "value": "about 37%"}, {"measurement": "quantity required for flush, as multiple", "setting": "[10]", "value": "20-40 times"}, {"measurement": "effect on spinal cord", "setting": "[11]", "value": "an excitant to the spinal cord"}]}
{"smiles": "CN1[C@@H]2CC[C@H]1C[C@@H](OC(=O)[C@H](CO)c1ccccc1)C2", "note": "[L-hyoscyamine sulphate]", "values": [{"measurement": "action on human eyes", "setting": "[12]", "value": "0.25% solution, can replace a 1% solution of atropine sulphate"}]}
{"smiles": "CN1[C@@H]2CC[C@H]1C[C@@H](OC(=O)[C@H](CO)c1ccccc1)C2", "note": "[L-hyoscyamine]", "values": [{"measurement": "effect on excitability of the spinal cord", "setting": "[2]", "value": "no effect"}, {"measurement": "peripheral activity", "setting": "[8]", "value": "the most potent parasympathetic antispasmodic known"}, {"measurement": "% Cross-reactivity", "setting": "[1]", "value": 100, "unit": "%"}, {"measurement": "Specificity (cross-reactivity), Verma", "setting": "[1]", "value": 100, "unit": "%"}, {"measurement": "Specificity (percentage of cross reactivity), Wurzeburger", "setting": "[3]", "value": 2.4, "unit": "%"}, {"measurement": "quantity needed for flush", "setting": "[10]", "value": "Less quantities of L-hyoscyamine were needed than atropine"}, {"measurement": "Specificity (cross-reactivity), Virtanen", "setting": "[5]", "value": 100, "unit": "%"}, {"measurement": "narcotization", "setting": "[6]", "value": "not affected"}]}
{"smiles": "CN1[C@@H]2C[C@@H](OC(=O)[C@H](CO)c3ccccc3)C[C@H]1[C@@H]1O[C@@H]12", "note": "[Scopolamine, 1-scopolamine-HCl]", "values": [{"measurement": "% Cross-reactivity", "setting": "[1]", "value": 0, "unit": "%"}]}
{"smiles": "CN1[C@@H]2CC[C@H]1C[C@@H](O)C2", "note": "[Tropine, tropine]", "values": [{"measurement": "% Cross-reactivity", "setting": "[1]", "value": 0, "unit": "%"}, {"measurement": "recognition by / cross-reaction with the antibody", "setting": "[1]", "value": "did not cross-react with the antibody"}]}
{"smiles": "CN1[C@@H]2CC[C@H]1C[C@@H](OC(=O)C(CO)c1ccccc1)C2", "note": "(stereo partly drawn) [atropine sulfate]", "values": [{"measurement": "serum level of 1-hyoscyamine after 3 hours", "setting": "after 3 hours", "value": "approximately 50%"}, {"measurement": "serum level course", "setting": "in vivo", "value": "steady decline curve after 40 minutes"}]}
